In ChEMBL document CHEMBL5352432, “Ad-hoc modifications of cyclic mimetics of SOCS1 protein: Structural and functional insights” (Eur J Med Chem, 2022):
The source made the active and inactive calls. The rule behind the calls is not given here. Positions of bridges follow the written chain, without caps; N, C: chain ends. Non-standard residues stand in square brackets, D forms with d. Residues, ends and D or L forms follow the SMILES beside them. *: point of attachment. 1Nal = N[C@@H](Cc1cccc2ccccc12)C(=O)O; hArg = N=C(N)NCCCC[C@H](N)C(=O)O; Cit = NC(=O)NCCC[C@H](N)C(=O)O; Orn = NCCC[C@H](N)C(=O)O; Ac5c = NC1(C(=O)O)CCCC1; Dap = NC[C@H](N)C(=O)O; Acm = CC(=O)NC*

Legend:
[1] = molecular target: Tyrosine-protein kinase JAK2 (Homo sapiens, UniProt O60674); assay: Binding affinity to His-tagged JAK2 catalytic domain (826 to 1132 residues) (unknown origin) assessed as dissociation constant incubated for 30 mins by MST analysis
Sequence of Tyrosine-protein kinase JAK2 (O60674 whole entry, the tested form may be a part): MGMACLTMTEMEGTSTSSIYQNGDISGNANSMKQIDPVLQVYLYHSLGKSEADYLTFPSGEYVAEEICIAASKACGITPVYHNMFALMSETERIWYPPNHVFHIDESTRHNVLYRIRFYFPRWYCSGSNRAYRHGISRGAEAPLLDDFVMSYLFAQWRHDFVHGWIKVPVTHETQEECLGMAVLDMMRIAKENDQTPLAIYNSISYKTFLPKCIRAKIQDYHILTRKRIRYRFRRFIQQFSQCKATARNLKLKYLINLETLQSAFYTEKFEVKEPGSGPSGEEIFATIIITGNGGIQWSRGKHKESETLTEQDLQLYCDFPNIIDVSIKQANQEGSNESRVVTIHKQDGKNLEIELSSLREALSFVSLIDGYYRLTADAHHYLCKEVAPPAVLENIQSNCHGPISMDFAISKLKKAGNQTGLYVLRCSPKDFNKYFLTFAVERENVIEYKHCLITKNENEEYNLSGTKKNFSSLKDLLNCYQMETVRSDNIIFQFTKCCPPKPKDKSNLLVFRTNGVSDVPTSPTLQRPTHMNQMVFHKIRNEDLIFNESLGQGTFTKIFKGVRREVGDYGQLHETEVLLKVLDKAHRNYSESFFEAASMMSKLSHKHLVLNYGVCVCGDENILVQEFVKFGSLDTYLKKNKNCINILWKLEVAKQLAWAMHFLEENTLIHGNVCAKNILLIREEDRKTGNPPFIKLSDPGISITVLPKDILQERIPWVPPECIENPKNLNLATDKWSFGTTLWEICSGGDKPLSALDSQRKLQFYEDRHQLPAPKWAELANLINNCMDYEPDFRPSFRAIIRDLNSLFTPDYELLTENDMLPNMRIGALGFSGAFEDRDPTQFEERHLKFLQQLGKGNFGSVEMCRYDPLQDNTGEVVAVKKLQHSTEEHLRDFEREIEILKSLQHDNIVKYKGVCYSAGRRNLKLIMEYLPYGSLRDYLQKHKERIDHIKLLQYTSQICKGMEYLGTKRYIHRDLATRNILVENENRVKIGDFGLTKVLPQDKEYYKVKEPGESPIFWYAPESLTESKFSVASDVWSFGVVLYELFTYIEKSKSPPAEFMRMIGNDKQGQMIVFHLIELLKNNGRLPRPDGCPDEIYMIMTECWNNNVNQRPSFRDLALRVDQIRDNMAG

[2] = Stability of the compound in fetal bovine serum assessed as drug degradation incubated for 17 hrs by RP-HPLC analysis; type: ADME, cell-free, Bos taurus; conditions: cattle, read-out: Drug degradation
[3] = Stability of the compound in fetal bovine serum incubated for 42 hrs by RP-HPLC analysis; type: ADME, cell-free, Bos taurus; conditions: cattle
[4] = Proteolytic stability of the compound in fetal bovine serum assessed as drug degradation incubated for 42 hrs by RP-HPLC analysis; type: ADME, cell-free, Bos taurus; conditions: cattle
[5] = Stability of the compound in fetal bovine serum assessed as drug degradation incubated for 42 hrs by RP-HPLC analysis; type: ADME, cell-free, Bos taurus; conditions: cattle, read-out: Drug degradation
[6] = Proteolytic stability of the compound in fetal bovine serum assessed as drug degradation incubated for 17 hrs by RP-HPLC analysis; type: ADME, cell-free, Bos taurus; conditions: cattle, read-out: Drug degradation

Row | Structure (SMILES) | Kd [1] | Stability [3] | other results
1 | CC(=O)NCSC[C@@H]1NC(=O)[C@H]([C@@H](C)O)NC(=O)[C@@H](NC(C)=O)CC(=O)NCCCC[C@@H](C(=O)N[C@@H](Cc2c[nH]cn2)C(=O)O)NC(=O)[C@H](CCCNC(=N)N)NC(=O)[C@H](Cc2cccc3ccccc23)NC(=O)[C@H]([C@@H](C)O)NC(=O)[C@H](CCC(N)=O)NC(=O)[C@H](CCCNC(=N)N)NC1=O (Ac-DTC(Acm)RQT[1Nal]RKH-OH; lactam 1-9) | 36 µM | – | metabolised at 17 h [2]: 30%
2 | CC(=O)NCSC[C@@H]1NC(=O)[C@H]([C@@H](C)O)NC(=O)[C@@H](NC(C)=O)CC(=O)NCCCC[C@@H](C(=O)N[C@@H](Cc2c[nH]cn2)C(=O)O)NC(=O)[C@H](CCCNC(=N)N)NC(=O)[C@H](Cc2cccc3ccccc23)NC(=O)C2(CCCC2)NC(=O)[C@H](CCC(N)=O)NC(=O)[C@H](CCCNC(=N)N)NC1=O (Ac-DTC(Acm)RQ[Ac5c][1Nal]RKH-OH; lactam 1-9) | 120 µM | – | Stability [4]: Stable
3 | CC(=O)NCSC[C@@H]1NC(=O)[C@H]([C@@H](C)O)NC(=O)[C@@H](NC(C)=O)CC(=O)NCCCC[C@@H](C(=O)N[C@@H](Cc2c[nH]cn2)C(=O)O)NC(=O)[C@H](CCCCNC(=N)N)NC(=O)[C@H](Cc2cccc3ccccc23)NC(=O)[C@H]([C@@H](C)O)NC(=O)[C@H](CCCNC(N)=O)NC(=O)[C@H](CCCNC(=N)N)NC1=O (Ac-DTC(Acm)R[Cit]T[1Nal][hArg]KH-OH; lactam 1-9) | 31 µM | Stable | –
4 | CC(=O)NCSC[C@@H]1NC(=O)[C@H]([C@@H](C)O)NC(=O)[C@@H](NC(C)=O)CC(=O)NCCCC[C@@H](C(=O)N[C@@H](Cc2c[nH]cn2)C(=O)O)NC(=O)[C@H](CCCNC(=N)N)NC(=O)[C@H](Cc2cccc3ccccc23)NC(=O)[C@H]([C@@H](C)O)NC(=O)[C@H](CCCN)NC(=O)[C@H](CCCNC(=N)N)NC1=O (Ac-DTC(Acm)R[Orn]T[1Nal]RKH-OH; lactam 1-9) | 32 µM | – | metabolised at 17 h [2]: 30%; metabolised at 42 h [5]: 100%
5 | CC(=O)NCSC[C@@H]1NC(=O)[C@H]([C@@H](C)O)NC(=O)[C@@H](NC(C)=O)CC(=O)NCCCC[C@@H](C(=O)N[C@@H](Cc2c[nH]cn2)C(=O)O)NC(=O)[C@H](CCCCNC(=N)N)NC(=O)[C@H](Cc2cccc3ccccc23)NC(=O)[C@H]([C@@H](C)O)NC(=O)[C@H](CCCN)NC(=O)[C@H](CCCNC(=N)N)NC1=O (Ac-DTC(Acm)R[Orn]T[1Nal][hArg]KH-OH; lactam 1-9) | 39 µM | Stable | –
6 | CC(=O)NCSC[C@@H]1NC(=O)[C@H]([C@@H](C)O)NC(=O)[C@@H](NC(C)=O)CCC(=O)NC[C@@H](C(=O)N[C@@H](Cc2c[nH]cn2)C(=O)O)NC(=O)[C@H](CCCNC(=N)N)NC(=O)[C@H](Cc2cccc3ccccc23)NC(=O)[C@H]([C@@H](C)O)NC(=O)[C@H](CCC(N)=O)NC(=O)[C@H](CCCNC(=N)N)NC1=O (Ac-ETC(Acm)RQT[1Nal]R[Dap]H-OH; lactam 1-9) | 71 µM | Stable | –
7 | CC(=O)NCSC[C@@H]1NC(=O)[C@H]([C@@H](C)O)NC(=O)[C@@H](NC(C)=O)CCC(=O)NCCC[C@@H](C(=O)N[C@@H](Cc2c[nH]cn2)C(=O)O)NC(=O)[C@H](CCCNC(=N)N)NC(=O)[C@H](Cc2cccc3ccccc23)NC(=O)[C@H]([C@@H](C)O)NC(=O)[C@H](CCC(N)=O)NC(=O)[C@H](CCCNC(=N)N)NC1=O (Ac-ETC(Acm)RQT[1Nal]R[Orn]H-OH; lactam 1-9) | – | Unstable | Activity [1]: inactive
8 | CC(=O)NCSC[C@@H]1NC(=O)[C@H]([C@@H](C)O)NC(=O)[C@@H](NC(C)=O)CCCCNC(=O)C[C@@H](C(=O)N[C@@H](Cc2c[nH]cn2)C(=O)O)NC(=O)[C@H](CCCNC(=N)N)NC(=O)[C@H](Cc2cccc3ccccc23)NC(=O)[C@H]([C@@H](C)O)NC(=O)[C@H](CCC(N)=O)NC(=O)[C@H](CCCNC(=N)N)NC1=O (Ac-KTC(Acm)RQT[1Nal]RDH-OH; lactam 1-9) | 160 µM | – | metabolised at 17 h [6]: 100%

The next lines start with results.

Row | Kd [1] | Stability [3] | Structure (SMILES) | other results
9 | – | Unstable | CC(=O)NCSC[C@@H]1NC(=O)[C@H]([C@@H](C)O)NC(=O)[C@@H](NC(C)=O)CC(=O)NC[C@@H](C(=O)N[C@@H](Cc2c[nH]cn2)C(=O)O)NC(=O)[C@H](CCCNC(=N)N)NC(=O)[C@H](Cc2cccc3ccccc23)NC(=O)[C@H]([C@@H](C)O)NC(=O)[C@H](CCC(N)=O)NC(=O)[C@H](CCCNC(=N)N)NC1=O (Ac-DTC(Acm)RQT[1Nal]R[Dap]H-OH; lactam 1-9) | Activity [1]: inactive
10 | 36 µM | – | CC(=O)NCSC[C@@H]1NC(=O)[C@H]([C@@H](C)O)NC(=O)[C@@H](NC(C)=O)CC(=O)NCCCC[C@@H](C(=O)N[C@@H](Cc2c[nH]cn2)C(=O)O)NC(=O)[C@H](CCCNC(=N)N)NC(=O)[C@H](Cc2cccc3ccccc23)NC(=O)[C@H]([C@@H](C)O)NC(=O)[C@H](CCCNC(N)=O)NC(=O)[C@H](CCCNC(=N)N)NC1=O (Ac-DTC(Acm)R[Cit]T[1Nal]RKH-OH; lactam 1-9) | metabolised at 17 h [2]: 50%
11 | 260 µM | – | CC(=O)NCSC[C@@H]1NC(=O)C2(CCCC2)NC(=O)[C@@H](NC(C)=O)CC(=O)NCCCC[C@@H](C(=O)N[C@@H](Cc2c[nH]cn2)C(=O)O)NC(=O)[C@H](CCCNC(=N)N)NC(=O)[C@H](Cc2cccc3ccccc23)NC(=O)[C@H]([C@@H](C)O)NC(=O)[C@H](CCC(N)=O)NC(=O)[C@H](CCCNC(=N)N)NC1=O (Ac-D[Ac5c]C(Acm)RQT[1Nal]RKH-OH; lactam 1-9) | Stability [4]: Stable
12 | 52 µM | Stable | CC(=O)NCSC[C@@H]1NC(=O)[C@H]([C@@H](C)O)NC(=O)[C@@H](NC(C)=O)CCC(=O)NCCCC[C@@H](C(=O)N[C@@H](Cc2c[nH]cn2)C(=O)O)NC(=O)[C@H](CCCNC(=N)N)NC(=O)[C@H](Cc2cccc3ccccc23)NC(=O)[C@H]([C@@H](C)O)NC(=O)[C@H](CCC(N)=O)NC(=O)[C@H](CCCNC(=N)N)NC1=O (Ac-ETC(Acm)RQT[1Nal]RKH-OH; lactam 1-9) | –
